In US20040248211A1, “ICAM-related protein” (priority 1992, published 2004):

Legend:
[1] = system: SKW3 cell binding to ICAM-R; assay: Peptide inhibition of SKW3 cell adhesion to soluble ICAM-R coated plastic; assay type: cell-based, human; conditions: peptide at 1-2 mg/ml; PMA; soluble ICAM-R coated wells
Source text: Based on amino acid sequence alignment with known β1 integrin binding domains in fibronectin and based on epitope mapping of anti-ICAM-R monoclonal antibodies that block cell adhesion (see Table 11 in Example 22), ICAM-R peptides corresponding to potential integrin binding sites were synthesized by Macromolecular Resources (Colorado State University, Fort Collins, Colo.). Four ICAM-R sequences which lie between or at the border of predicted beta strands in domains 1 and 3 of were chosen. Similar but not identical β-strand predictions for ICAM-1 are set out in Staunton et al., Cell, 61: 243-254 (1990). Inhibition was assayed using a system involving cell adhesion to soluble ICAM-R coated plastic. Calcein-labeled cells (see Example 7 Section A above) were incubated with peptide at 1-2 mg/ml for 20 minutes at 25° C. and the cells were transferred to wells of a 96-well plate previously coated with soluble ICAM-R (see Example 10) and containing 10 μg/ml final concentration phorbol 12-myristate 13-acetate (PMA). After 50 minutes, the plate was inverted in PBS for 10 minutes to remove unbound cells. Bound cells were quantitated using a fluorescence concentration analyzer.

Jurkat T cells = assay: MIP-1 alpha ELISA, Jurkat on co-immobilized antibodies; assay type: cell-based, human; conditions: anti-ICAM-R 10 μg/ml co-immobilized with sub-optimal OKT3; OKT3 = sub-optimal concentration alone
Procedure: In addition to induction in monocytes, the expression of MIP-1 alpha in the Jurkat T leukemic cell line upon treatment with ICR-5.1, ICR-4.2 or ICR-9.2 was also examined. A sub-optimal dose of anti-CD3 antibody OKT3 (500 ng/ml) in PBS-CMF was plated onto flat-bottomed 96-well polystyrene plates and incubated overnight at 4° C. Then, after removing well contents, monoclonal antibody OKT3, ICR-5.1, ICR-4.2, or ICR-9.2 (10 μg/ml in PBS-CMF) was plated overnight at 4° C. Wells were blocked with 1% BSA in PBS-CMF at 37° C. for 1 hour and then rinsed in PBS-CMF. Jurkat T cells were seeded into wells at 2×10^5/well in RPMI/10%FCS+10 μg/ml polymyxin B—SO4. Cells were incubated in wells for 4, 6, or 8 hours or overnight at 37° C. in 5% CO2. Supernatants were harvested by transferring well contents to round-bottomed 96-well polystyrene plates, harvested by centrifuging for 5 minutes at 1200 rpm and by re-transferring to new round-bottomed plates. MIP-1 alpha release into the cell supernatant was assayed by a specific ELISA for MIP-1 alpha.

human PBL = assay: Tyrosine phosphorylation in PBL after crosslinking; assay type: cell-based; conditions: soluble antibody 30 ug/ml, goat anti-mouse IgG 100 ug/ml
Procedure: Human PBL was obtained by Ficoll-Hypaque centrifugation and were incubated for 5 minutes with soluble ICR-4.2, OKT3 or anti-HLA-(1×10^7 cells were incubated with each antibody at 30 ug/ml). The cells were then washed and goat anti-mouse IgG (Cappell) was added to a final concentration of 100 ug/ml. After varying periods of time, the cells were lysed in detergent and lysates were electrophoresed on a 10% acrylamide gel, transferred to blotting paper. Blots were then probed with the anti-phosphotryosine antibody 4G10.

Jurkat T leukemic cells = assay: F-actin and G-actin cell content; assay type: cell-based, human; conditions: ICR-1.1 without gam
Procedure: Cellular shape changes (such as cell spreading) as well as T-cell activation are associated with changes in the cytoskeletal actin network manifested by alteration of the ratio of globular actin (G-actin) to filamentous actin (F-actin). To test whether the engagement by ICAM-R antibodies of ICAM-R expressed on Jurkat T leukemic cells would induce changes in cellular actin ratios, studies measuring F-actin and G-actin cell content were carried out by methods known in the art.

HL60 cells = assay: IL-8 release from HL60; assay type: cell-based, human
Procedure: Monocytes were isolated by elutriation from peripheral blood of normal donors. […] After blocking free sites, the cells were placed into the wells in medium. […] Those cells plated in wells treated with BSA plus or minus LPS were rounded and not spread. After 8 or 18 hours of incubation at 37° C., the medium was removed and assayed for IL-8 immunoreactivity. […] By 18 hours, IL-8 levels in media from ICR monoclonal antibody wells were much elevated over control levels. […] Similar experiments with monocytic cell lines (U937 and HL60) to determine if ICR monoclonal antibody can induce IL-8 release were conducted. U937 cells responded to each of the ICR monoclonal antibody treated wells by releasing IL-8 into the conditioned medium. […] No detectable morphological changes were detected with the U937 or HL60 cells.

THP-1 cells = assay: MIP-1 alpha secretion by THP-1 on immobilized soluble LFA-1; assay type: cell-based, human; conditions: background approximately 100 pg/ml
Procedure: A soluble version of LFA-1, when immobilized onto plastic wells, induced THP-1 cells to secrete approximately […] MIP-1 alpha, whereas background levels were approximately 100 pg/ml.

“ICAM-1 70-74: ICAM-1 domain 1 peptide (DGQST, SEQ ID NO: 25)” was tested, and the “% Inhibition CD18-Dependent Binding (SKW3)” value [1] was “did not inhibit binding”.
With “OKT3: anti-CD3 antibody [reference compound]” the “MIP-1 alpha expression relative to BSA background” value (Jurkat T cells) was “three-fold”, the “tyrosine phosphorylation after crosslinking” value (human PBL) was “Phosphorylation of substrates were also observed” and the “time to peak F-actin content” value (Jurkat T leukemic cells; OKT3 plus gam) was no more than 10 min. The F-actin content (Jurkat T leukemic cells; OKT3 plus goat anti-mouse crosslinker (gam)) was “rapid, transient increase in F-actin content”.
In the case of lipopolysaccharide [LPS], the IL-8 release (HL60 cells) was “did induce a marked release”.
“soluble version of LFA-1: soluble version of LFA-1 immobilized onto plastic wells” was tested, and the MIP-1 alpha secreted (THP-1 cells) was “approximately 1000 μg/ml”.
